Measurements reported in article PMC5658362 (Scientific Reports, 2017).
“Also recorded” adds a separate entry of the source. Where a name gives a salt, the structure may show the parent alone.

Assays:
[1] = system: ΔtlpC H. pylori PMSS1; experiment: Swimming behaviour (direction change) chemotaxis assay, ΔtlpC mutant; format: cell-based, Helicobacter pylori
[2] = system: McpP; parameters: method as in PMID 26048936; conditions: P. aeruginosa sCACHE receptor McpP; cited from earlier work
[3] = biological target: TlpC LBD native (Helicobacter pylori, UniProt O24911); experiment: ITC titration of TlpC LBD with ligand; format: binding; conditions: for heat release or absorption on titration (binding): 5 mM ligand into 10 µM protein
Protocol: (§1) The expression vectors for single-point variants of TlpC LBD in which S104, Y151, K153, N213, I218 or Y285 were replaced by alanine, and Y249 by phenylalanine, were prepared from a TlpC-expressing plasmid described previously. This plasmid expresses codon-optimised H. pylori 26695 TlpC LBD consisting of amino acid residues 34–297 (Fig. 1a). Mutants were created using the QuikChange Mutagenesis Kit (Stratagene). TlpC LBD and its variants were expressed and purified following the previously published procedure.
(§2) Measurements were performed on a MicroCal VP-ITC instrument microcalorimeter (MicroCal) at 25 °C. […] The data was fitted to a single-site binding model using non-linear least-squares regression (Origin 7, OriginLab, USA), yielding the binding enthalpy ∆H, dissociation constant K D, and binding entropy […]. Each experiment was repeated three times.

[4] = biological target: T1, TlpC LBD I218A (Helicobacter pylori, UniProt O24911, I218A); experiment: ITC titration of TlpC LBD variant with lactate; format: binding
T1 sequence (O24911 34-297 I218A): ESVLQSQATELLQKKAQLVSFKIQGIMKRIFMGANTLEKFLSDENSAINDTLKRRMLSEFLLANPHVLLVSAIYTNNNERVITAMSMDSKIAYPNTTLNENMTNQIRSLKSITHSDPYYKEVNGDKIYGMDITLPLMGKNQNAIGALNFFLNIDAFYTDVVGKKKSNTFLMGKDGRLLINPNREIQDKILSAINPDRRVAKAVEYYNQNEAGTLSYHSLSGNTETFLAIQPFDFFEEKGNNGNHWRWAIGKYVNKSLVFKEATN
Protocol: as §1, §2

[5] = biological target: T2, TlpC LBD K153A (Helicobacter pylori, UniProt O24911, K153A); experiment: ITC titration of TlpC LBD variant with lactate; format: binding
T2 sequence (O24911 34-297 K153A): T1 sequence (O24911 34-297 I218A)
Protocol: as §1, §2

[6] = biological target: T3, TlpC LBD N213A (Helicobacter pylori, UniProt O24911, N213A); experiment: ITC titration of TlpC LBD variant with lactate; format: binding
T3 sequence (O24911 34-297 N213A): T1 sequence (O24911 34-297 I218A)
Protocol: as §1, §2

[7] = biological target: T4, TlpC LBD S104A (Helicobacter pylori, UniProt O24911, S104A); experiment: ITC titration of TlpC LBD variant with lactate; format: binding
T4 sequence (O24911 34-297 S104A): T1 sequence (O24911 34-297 I218A)
Protocol: as §1, §2

[8] = biological target: T5, TlpC LBD Y151A (Helicobacter pylori, UniProt O24911, Y151A); experiment: ITC titration of TlpC LBD variant with lactate; format: binding
T5 sequence (O24911 34-297 Y151A): T1 sequence (O24911 34-297 I218A)
Protocol: as §1, §2

[9] = biological target: T6, TlpC LBD (Helicobacter pylori, UniProt O24911); experiment: ITC titration of TlpC LBD variant with lactate; format: binding; conditions: text prints Y285A substitution
T6 sequence (O24911 34-297 Y285F): T1 sequence (O24911 34-297 I218A)

[10] = system: wild-type H. pylori PMSS1; experiment: Swimming behaviour (direction change) chemotaxis assay, wild type; format: cell-based, Helicobacter pylori
[11] = system: H. pylori; conditions: cited from earlier work

SMILES: Cl [HCl]
- chemotaxis response (repellent) ([1]; 10 mM HCl): retained chemotaxis responses

SMILES: CC(=O)O [acetate]
- binding to McpP [2]: binds

SMILES: c1ccc(-c2ccccn2)nc1 [dipyridyl]
- chemotaxis response (attractant) ([1]; 50 μM dipyridyl): retained chemotaxis responses

SMILES: CC(O)C(=O)O (centres unmarked) [lactate]
- Enthalpy, ∆H ([3]; native TlpC LBD): −21,323.3 ± 713.0 cal/mol
- Entropy, ∆S ([3]; native TlpC LBD): −54.1 ± 2.0 cal/mol/degree
- Enthalpy, ∆H [4]: −18,145.0 ± 49.0 cal/mol
- Entropy, ∆S [4]: −49.4 ± 0.2 cal/mol/degree
- Enthalpy, ∆H [5]: −12,730 ± 345.0 cal/mol
- Entropy, ∆S [5]: −27.5 ± 1.0 cal/mol/degree
- effect of substitution on lactate binding [6]: abolished the binding
- Enthalpy, ∆H [7]: −13,105 ± 318.0 cal/mol
- Entropy, ∆S [7]: −28.2 ± 1.0 cal/mol/degree
- Enthalpy, ∆H [8]: −12,040 ± 250.2 cal/mol
- Entropy, ∆S [8]: −24.1 ± 1.0 cal/mol/degree
- effect of substitution on lactate binding [9]: abolished the binding
- chemotactic (attractant) response, direction changes in 3 s ([10]; 0.1 mM lactate): significant response; also recorded: strongest
- chemotactic (attractant) response, direction changes in 3 s ([10]; 1.0 mM lactate): detectable
- chemotactic (attractant) response, direction changes in 3 s ([10]; 10 mM lactate): not detectable; also recorded: did not elicit a positive chemotactic response
- chemotactic (attractant) response, direction changes in 3 s ([10]; concentrations higher than 0.1 mM): lost the response
- optimal concentration at which lactate is sensed as attractant ([10]; order of magnitude, tested 0.1-10 mM): 0.1 mM
- chemotactic response to lactate ([1]; all tested concentrations (0.1, 1, 10 mM)): abolished the chemotactic response; also recorded: drastically reduced
- Kd [2]: 107 µM
- concentration with inhibitory effect on H. pylori growth [11]: ≥ 10 mM
- inhibitory effect on H. pylori viability among tested SCFA ([11]; short chain fatty acids secreted by LAB): strongest inhibitory effect

SMILES: O=C(O)CC(O)C(=O)O (centres unmarked) [malate]
- heat release or absorption on titration (binding) [3]: no significant heat release or absorption

SMILES: O=C(O)CC(=O)C(=O)O [oxaloacetate]
- heat release or absorption on titration (binding) [3]: no significant heat release or absorption

SMILES: CCC(=O)O [propionate]
- binding to McpP [2]: binds

SMILES: CC(=O)C(=O)O [pyruvate]
- heat release or absorption on titration (binding) [3]: no significant heat release or absorption
- binding to McpP [2]: binds
